Test results from US12606540B2, “Triazolone compound” (MEDSHINE DISCOVERY INC., priority 2020, dated 2026).
Read-outs that look alike come from different tables or passages of the source.

Key:
DHODH enzyme = DHODH enzyme (Homo sapiens, UniProt Q02127); assay: DHODH enzyme inhibitory activity in vitro (resazurin fluorescence); assay type: biochemical; conditions: 5 nM DHODH, 15 μM L-DHO, 80 μM Resazurin
From the text: The DHODH inhibitory activity of the compounds was detected by the following experimental method, and the experimental results are as shown in Table 1.
DHODH uses flavin mononucleotide FMN to catalyze the oxidation of dihydrooratic acid DHO to produce oratic acid, while the re-oxidation of FMN requires the participation of coenzyme CoQ. In the experiment of detecting the DHODH enzyme activity, CoQ was replaced by Resazurin dye as the final electron acceptor in the enzyme activity reaction. Resazurin solution is blue, and the resorufin generated after reduction has red fluorescence, and the fluorescence signal can be detected under the 535 nm of excitation wavelength and the 590 nm of emission wavelength. The components of the reaction buffer used in the experiment were 100 mM Hepes pH 7.0, 150 mM NaCl, 0.3% CHAPS, 0.5 mg/mL BSA, 0.1 μM FMN and 1% DMSO. The final concentration of DHODH enzyme in the reaction system was 5 nM, and the final concentration of substrate L-DHO was 15 μM, the final concentration of indicator Resazurin was 80 μM. The components of the reaction stop buffer were 100 mM Hepes pH 7.0 and 5 mM Orotate. The specific method was as follows: 2-fold final concentration of the DHODH enzyme solution was mixed with the compound, incubated at room temperature for 20 min, 2-fold final concentration of the substrate mixture solution of L-DHO and resazurin was added and reacted, incubated at room temperature away from light for 45 min. Then the reaction was stopped by adding 2-fold final concentration of the reaction stop buffer to the reaction system, and incubated at room temperature for 10 min, the fluorescence signal of the reaction system was detected with EnVision under the condition of Ex/Em=535/590 nm.

[1] = test system: influenza virus A/Weiss/43 (H1N1); assay: Influenza virus cytopathic effect (CPE) experiment in MDCK cells; assay type: cell-based; conditions: unidentified influenza virus, H1N1, 120 h, 5 days incubation, CCK8
[2] = test system: human peripheral blood mononuclear cells; assay: Proliferation inhibition of peripheral blood mononuclear cells (flow cytometry); assay type: cell-based; conditions: PBMC, PHA-M 5 μg/mL stimulation, 48 hours
Protocol: Flow cytometry was used to detect cell proliferation of human peripheral blood mononuclear cells.
• Cell complete medium: 445 mL of RPMI1640 cell culture+50 mL of fetal bovine serum+5 mL of double antibody • Buffer 1: 9.9 mL of phosphate buffer+0.1 mL of 10% bovine serum protein • Buffer 2: 10 mL of fetal bovine serum+490 mL of phosphate buffer 3.2 Cell Thawing • 3.2.1 20 mL of cell complete medium was added to a 50 mL of centrifuge tube and pre-heated in a 37° C. water bath for 5 minutes; • 3.2.2 the cell cryotubes were removed from the liquid nitrogen storage tank and placed on dry ice for 5-10 minutes to allow the liquid nitrogen to evaporate fully; • 3.2.3 the cell cryotubes were clamped with forceps and placed in the water bath, and shaken gently to thaw the frozen cells quickly; • 3.2.4 the thawed cells were transferred to the pre-heated cell complete medium with a pipette, centrifuged at 350 g for 5 min, then the supernatant was discarded, and the cells was resuspended by adding 10 mL of phosphate buffer; • 3.2.5 counting by cell counter, and cell viability and cell count were recorded. 3.3 Cell Labeling • 3.3.1 Cell proliferation labeling solution (CellTrace™ Violet, 1:1000 dilution) was prepared • 3.3.2 the above mixture was centrifuged at 350 g for 5 minutes, and the supernatant was discarded, then the cells (20×10^6/mL) were resuspended by adding Buffer 1, and the resuspended cells were gently blown by pipette, and an equal volume of cell proliferation labeling solution (prepared in 3.3.1) was added, and gently blown well by pipette; • 3.3.3 incubating in a 5% CO2, 37° C. cell incubator for 18 minutes; • 3.3.4 the 5-fold volume of cell complete medium was added and leaved at room temperature for 5 minutes to terminate the staining reaction; • 3.3.5 the above mixture was centrifuged at 350 g for 5 minutes, and the supernatant was discarded, then the cells were resuspended by adding 10 mL of cell complete medium, counted by cell counter, and cell viability and cell count were recorded; • 3.3.6 the above mixture was centrifuged at 350 g for 5 minutes, and the supernatant was discarded, then the corresponding volume of cell complete medium was added according to the cell counting results, and the density of the resuspended cells was 2×10^6/mL and was to be used. 3.4 Cell Proliferation Stimulation • 3.4.1 50 μL/well prepared cell suspension (1×10^5 cells/well), 50 μL of 4×PHA-M (the final concentration is 5 μg/mL), 50 μL of 4×test compound, 50 μL of cell complete medium were added to the wells of 96-well cell culture plate, and the corresponding control group was set up; (total volume of the reaction system is 200 μL) • 3.4.2 the cell culture plate was placed and incubated in a 5% CO2, 37° C. cell incubator for 48 hours. 3.5 Cell Proliferation Detection • 3.5.1 the above mixture was centrifuged at 350 g for 5 minutes and the supernatant was transferred to a new cell culture plate and stored at −80° C.; • 3.5.2 200 μL of Buffer 2 was add to the wells of the culture plate, and the above mixture was centrifuged at 350 g and the supernatant was discarded; • 3.5.3 cell dead or living staining solution (7-AAD, 1:100 dilution) was prepared with Buffer 2; • 3.5.4 100 μL/well of dead or living staining solution was added, and gently blown and mixed well by pipette, and stained at room temperature for 10 min; • 3.5.5 cell proliferation was detected by flow cytometry analyzer and analyzed by Flowjo software.

MDR1 (P-glycoprotein) = assay: Permeability evaluation on MDR1-MDCK II cell line; conditions: dog, MDCK-MDR1, pH 7.4
[3] = Pharmacokinetic evaluation in mice (IV and PO); assay type: in vivo, female Balb/c mice; conditions: for MRT last: read-out: MRT0-last
Protocol: Experiment process: 0.04 mg/mL of a clarified solution of the test compound in 5% DMSO/10% Solutol solution/85% water was injected into female Balb/c mice (overnight fasting, 7-9 weeks of age) via tail vein, with dosage of 0.2 mg/kg. 0.1 mg/mL of the test compound in 5% DMSO/10% Solutol solution/0.2% Tween80/84.8% water was administered by gavage to female Balb/c mice (overnight fasting, 7-9 weeks of age), with dosage of 1 mg/kg. About 30 μL of blood was collected from the jugular vein at 0.0833, 0.25, 0.5, 1.0, 2.0, 4.0, 8.0, 10 and 24 h and from the tail vein at 0.25, 0.5, 1.0, 2.0, 4.0, 8.0 and 24 h after administration for both groups of animals, and were placed in anticoagulation tubes with EDTA-K2, and the blood was separated by centrifugation to obtain plasma. Plasma concentrations were detected by LC-MS/MS, and relevant pharmacokinetic parameters were calculated using WinNonlin™ Version 6.3 (Pharsight, Mountain View, CA) pharmacokinetic software with a non-compartmental model linear logarithmic trapezoid method.

[4] = female, Balb/c, mouse, plasma, IV 0.2 mg/kg
[5] = female, Balb/c, mouse, plasma, PO 1 mg/kg

DHODH enzyme, sequence (Q02127 whole entry): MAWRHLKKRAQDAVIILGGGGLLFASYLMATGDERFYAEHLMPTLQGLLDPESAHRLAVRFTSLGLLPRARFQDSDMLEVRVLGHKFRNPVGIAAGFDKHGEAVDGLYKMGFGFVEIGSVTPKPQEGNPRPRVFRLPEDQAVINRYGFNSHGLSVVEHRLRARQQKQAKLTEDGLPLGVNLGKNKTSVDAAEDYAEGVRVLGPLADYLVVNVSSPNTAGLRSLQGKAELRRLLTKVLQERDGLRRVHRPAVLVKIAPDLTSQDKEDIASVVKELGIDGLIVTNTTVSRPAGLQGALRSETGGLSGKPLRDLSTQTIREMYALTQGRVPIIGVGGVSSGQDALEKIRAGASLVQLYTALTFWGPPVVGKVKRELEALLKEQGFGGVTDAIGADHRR

CCn1c(CO)nn(-c2cc(O[C@@H](C)C(F)(F)F)c(/C(F)=C/c3cnccc3Cl)cc2F)c1=O [Compound 28]
IC50 (DHODH enzyme): 2.4 nM | EC50 [1]: 43 nM | IC50 [2]: 8.4 nM | Papp A→B at 150 min, 2 μM (MDR1 (P-glycoprotein)): 8.65 ×10⁻⁶ cm/s | Papp B→A at 150 min, 2 μM (MDR1 (P-glycoprotein)): 10.7 ×10⁻⁶ cm/s | Papp at 150 min, 2 μM (MDR1 (P-glycoprotein)): > 5.5 ×10⁻⁶ cm/s | efflux ratio at 150 min, 2 μM (MDR1 (P-glycoprotein)): 1.24

CCn1c(CO)nn(-c2cc(O[C@@H](C)C(F)(F)F)c(/C(F)=C/c3cccc(NC(=O)C4CC4)c3)cc2F)c1=O [Compound 29]
IC50 (DHODH enzyme): 4.7 nM

CCn1c(CO)nn(-c2cc(O[C@@H](C)C(F)(F)F)c(/C(F)=C/c3ncccc3C(F)F)cc2F)c1=O [Compound 30]
IC50 (DHODH enzyme): 8 nM

CCn1c(CO)nn(-c2cc(O[C@@H](C)C(F)(F)F)c(/C(F)=C/c3cnccc3C(F)F)cc2F)c1=O [Compound 32]
IC50 (DHODH enzyme): 3.9 nM

CCn1c(CO)nn(-c2cc(O[C@@H](C)C(F)(F)F)c(/C=C/c3c(F)cccc3Cl)cc2F)c1=O [Compound 35]
IC50 (DHODH enzyme): 2.6 nM | EC50 [1]: 42 nM

CCn1c(CO)nn(-c2nc(O[C@@H](C)C(F)(F)F)c(/C=C/c3c(F)cccc3Cl)cc2F)c1=O [Compound 36]
IC50 (DHODH enzyme): 1.5 nM | EC50 [1]: 10 nM | IC50 [2]: 5.9 nM

CCn1c(CO)nn(-c2cc(O[C@@H](C)C(F)(F)F)c(/C=C/c3cccnc3Cl)cc2F)c1=O [Compound 37]
IC50 (DHODH enzyme): 31.8 nM

CCn1c(CO)nn(-c2cc(O[C@@H](C)C(F)(F)F)c(/C=C/c3cccnc3C(F)F)cc2F)c1=O [Compound 38]
IC50 (DHODH enzyme): 26.5 nM

CCn1c(CO)nn(-c2cc(O[C@@H](C)C(F)(F)F)c(/C(F)=C/c3cccnc3C(F)F)cc2F)c1=O [Compound 39]
IC50 (DHODH enzyme): 1.3 nM | EC50 [1]: 42 nM | IC50 [2]: 14.4 nM | Tlast ([3]; IV 0.2 mg/kg): 24.0 h | F ([3]; PO 1 mg/kg): 97.4% | Tlast ([3]; PO 1 mg/kg): 24.0 h | AUC(0-inf) [3, 4]: 2.24 µM·h | AUC(0-t) [3, 4]: 1.84 µM·h | clearance [3, 4]: 2.86 mL/min/kg | half-life [3, 4]: 10.4 h | MRT last [3, 4]: 7.83 h | Vd ([3]; female, Balb/c, mouse, plasma, IV 0.2 mg/kg, read-out: VdSS): 2.31 L/kg | AUC(0-inf) [3, 5]: 10.6 µM·h | AUC(0-t) [3, 5]: 8.95 µM·h | Tmax [3, 5]: 1.5 h | half-life [3, 5]: 8.86 h | MRT last [3, 5]: 8.67 h | C0 ([3]; female, Balb/c, mouse, IV 0.2 mg/kg, plasma): 419 nM | Cmax ([3]; female, Balb/c, mouse, PO 1 mg/kg, plasma): 787 nM | Papp A→B at 150 min, 2 μM (MDR1 (P-glycoprotein)): 10.1 ×10⁻⁶ cm/s | Papp B→A at 150 min, 2 μM (MDR1 (P-glycoprotein)): 13.9 ×10⁻⁶ cm/s | Papp at 150 min, 2 μM (MDR1 (P-glycoprotein)): > 5.5 ×10⁻⁶ cm/s | efflux ratio at 150 min, 2 μM (MDR1 (P-glycoprotein)): 1.37

CCn1c(CO)nn(-c2cc(O[C@@H](C)C(F)(F)F)c(/C(F)=C/c3cccnc3)cc2F)c1=O [Compound 40]
IC50 (DHODH enzyme): 7.3 nM
